Measured values taken from article PMC8619434 (Viruses, 2021).
pIC50: −log10 of the molar value. Where a name gives a salt, the structure may show the parent alone. Read-outs that look alike come from different tables or passages of the source. *1 amine or outer side, *2 acyl side, *3 side chain or, on linkers, in order; H or OH if unused. Where a SMILES comes first, the peptide text is derived from it. Bridges are numbered along the chain shown (N, C = ends). [ ]: non-standard residue; d: D form. The star is where a group is joined. pTerphenylCO(4''-OnC5H11) = CCCCCOc1ccc(-c2ccc(-c3ccc(C(=O)*)cc3)cc2)cc1; Orn(4R-OH,5R-OH) = O=C([C@H](C[C@@H](O)[C@@H](O)N[*:3])N[*:1])[*:2]; hTyr(3S-OH,4S-OH) = N[C@H](C(=O)O)[C@H](O)[C@@H](O)c1ccc(O)cc1; Pro(3S-OH,4S-Me) = C[C@H]1CN[C@H](C(=O)O)[C@H]1O; Hyp = O=C(O)[C@@H]1C[C@@H](O)CN1

What was measured:
[1] = test system: SARS-CoV-2 spike protein pseudovirus; assay: organism not typed; format: cell-based; settings: for activity: 10 µM, read-out: % infectivity (Table S3, kite-shaped molecules in order of inhibition); for activity at 10 µM: 293T/ACE2, 48 h, read-out: % Infectivity of SARS-2-Spike pv; for pIC50: 293T/ACE2, read-out: IC50 of SARS-CoV-2-S pseudovirus infectivity
293T-ACE2 cells = settings: for % viability (Table S3): 10 µM
VSV-G pseudovirus = assay: microbe, parasite or virus in culture; format: cell-based, vesicular stomatitis virus; settings: for activity at 10 µM: Pseudovirus, 293T/ACE2, read-out: % Infectivity of VSV-G pv
[2] = values for the salts; ref chemical supplier datasheets; cited from earlier work
in vitro = settings: human, % Viability of SARS-2-Spike pv
[3] = predictions for the uncharged form; ref https://go.drugbank.com; cited from earlier work
MERS-CoV-S pseudovirus = format: cell-based
SARS-CoV-1-S pseudovirus = format: cell-based
[4] = test system: SARS-CoV-2 spike protein pseudovirus; format: cell-based
[5] = test system: SARS-CoV-2 spike protein pseudovirus; format: cell-based; remark: listed apart in the source
[6] = test system: SARS-CoV-2 spike protein pseudovirus; settings: Caco-2

SMILES | activity at 10 µM [1] | activity at 10 µM (VSV-G pseudovirus) | viability (in vitro) | % Infectivity of VSV-G pv (VSV-G pseudovirus) | also measured
Cc1nc2c([nH]1)-c1ccccc1N(C(=O)c1ccc(NC(=O)c3ccccc3-c3ccccc3)cc1)CC2.Cl [conivaptan hcl] |  |  |  |  | activity [1]: 52%; % viability (Table S3) (293T-ACE2 cells): 102%
CNCCCC12CCC(c3ccccc31)c1ccccc12 [maprotiline HCl] | 9% | 89% | 99% |  | water solubility b [2]: 159 mM; water solubility a [3]: 0.15 mM
CCOC(=O)C1OC1C(=O)NC(CC(C)C)C(=O)NCCC(C)C (stereo not drawn) [E64d] | 9% | 105% | 95% |  | inhibition of MERS-CoV-S pseudovirus infection (MERS-CoV-S pseudovirus): inhibited; inhibition of SARS-CoV-1-S pseudovirus infection (SARS-CoV-1-S pseudovirus): inhibited
CN(C)CCC=C1c2ccccc2CCc2ccccc21 [amitriptyline HCl] | 9% | 80% | 112% |  | pIC50 [1]: 5.30; water solubility b [2]: 99 mM; water solubility a [3]: 0.014 mM
CCCCCOc1ccc(-c2ccc(-c3ccc(C(=O)N[C@H]4C[C@@H](O)[C@@H](O)NC(=O)[C@@H]5[C@@H](O)[C@@H](C)CN5C(=O)[C@H]([C@@H](C)O)NC(=O)[C@H]([C@H](O)[C@@H](O)c5ccc(O)cc5)NC(=O)[C@@H]5C[C@@H](O)CN5C(=O)[C@H]([C@@H](C)O)NC4=O)cc3)cc2)cc1 [anidulafungin] ({pTerphenylCO(4''-OnC5H11)}-[Orn(4R-OH,5R-OH)]T[Hyp][hTyr(3S-OH,4S-OH)]T[Pro(3S-OH,4S-Me)]; lactam 1-C) | 19% | 125% | 109% |  | 
CC[C@H]1OC(=O)[C@H](C)[C@@H](O[C@H]2C[C@@](C)(OC)[C@@H](O)[C@H](C)O2)[C@H](C)[C@@H](O[C@@H]2O[C@H](C)C[C@H](N(C)C)[C@H]2O)[C@](C)(O)C[C@@H](C)CN(C)[C@H](C)[C@@H](O)[C@]1(C)O [azithromycin dihydrate] | 4% | 100% | 94% |  | 
CCOC(=O)C1=C(COCCN)NC(C)=C(C(=O)OC)C1c1ccccc1Cl (stereo not drawn) [amlodipine besylate] |  |  |  | 100% | % Infectivity of SARS-2-Spike pv [1]: 19%; % Viability of SARS-2-Spike pv (293T-ACE2 cells; human): 116%
CN1[C@@H]2CC[C@H]1C[C@@H](OC(c1ccccc1)c1ccccc1)C2 [benztropine mesylate] | 10% | 93% | 96% |  | 
CN(C)CCC=C1c2ccccc2C=Cc2ccccc21 [cyclobenzaprine HCl] | 9% | 81% | 101% |  | 
CN1CCN(CCCN2c3ccccc3Sc3ccc(Cl)cc32)CC1 [prochlorperazine] | 16% | 80% | 94% |  | 
CCOC(=O)C1=C(COCCN)NC(C)=C(C(=O)OC)C1c1ccccc1Cl (stereo not drawn) [amlodipine] | 12% |  | 115% | 78% | inhibition of MERS-CoV-S pseudovirus infection (MERS-CoV-S pseudovirus): non-significant inhibition; pIC50 [1]: 5.25; inhibition of SARS-CoV-1-S pseudovirus infection (SARS-CoV-1-S pseudovirus): significant inhibition; toxicity in Calu3 cells (word printed in Figure 7) (Calu3 cells): toxic
CC[C@H]1OC(=O)[C@H](C)[C@@H](O[C@H]2C[C@@](C)(OC)[C@@H](O)[C@H](C)O2)[C@H](C)[C@@H](O[C@@H]2O[C@H](C)C[C@H](N(C)C)[C@H]2O)[C@](C)(O)C[C@@H](C)CN(C)[C@H](C)[C@@H](O)[C@]1(C)O [azithromycin] |  |  |  | 93% | % Infectivity of SARS-2-Spike pv [1]: 3%; pIC50 [1]: 6.11; % Viability of SARS-2-Spike pv (293T-ACE2 cells; human): 100%
Cc1c(-c2ccc(O)cc2)n(Cc2ccc(OCCN3CCCCCC3)cc2)c2ccc(O)cc12.Cl [bazedoxifene Hcl] |  |  |  | 13% | % Infectivity of SARS-2-Spike pv [1]: 3%; % Viability of SARS-2-Spike pv (293T-ACE2 cells): 88%
CN[C@H]1CC[C@@H](c2ccc(Cl)c(Cl)c2)c2ccccc21 [sertraline HCl] | 8% | 71% | 95% |  | toxicity in Calu3 cells (word printed in Figure 7) (Calu3 cells): toxic
CN(C)C(=O)COC(=O)Cc1ccc(OC(=O)c2ccc(NC(=N)N)cc2)cc1 [camostat mesylate] | 120% |  |  | did not inhibit | inhibition of SARS-CoV-2 pseudovirus infection of A549-ACE2 cells [4]: failed to inhibit; inhibition of MERS-CoV-S pseudovirus infection (MERS-CoV-S pseudovirus): did not inhibit; inhibition of SARS-CoV-1-S pseudovirus infection (SARS-CoV-1-S pseudovirus): did not inhibit; % infectivity of SARS-CoV-2 pseudovirus in Calu3 cells [5]: inhibited; inhibition of SARS-CoV-2 pseudovirus infection of Caco2 cells [6]: inhibited
Cc1cncc(CN2CCC(=C3c4ccc(Cl)cc4CCc4cccnc43)CC2)c1.O=C(O)/C=C/C(=O)O [Rupatadine Fumarate] |  |  |  |  | activity [1]: 38%; % viability (Table S3) (293T-ACE2 cells): 74%
